Data set [1] relates to Trypanosoma cruzi (Tulahuen C4). In words: In vitro anti-T. cruzi activity (β-galactosidase CPRG colorimetric assay in VERO monolayer). The class given is cell-based. As to conditions: for inhibition at 10 µg/mL / IC50: Trypanosoma cruzi, TULAHUEN, Vero; for inhibition at 10 µg/mL: 120 h, 10 μg/mL of each compound, 120 hours, read-out: T. cruzi Inhib. (%); for IC50: Table 3, read-out: IC50 T. cruzi.

Data set [2] concerns axenic amastigotes of L. amazonensis (strain MHOM/BR/76/LTB-012). In words: microbe, parasite or virus in culture. The note with it: Leishmania amazonensis, 72 h, read-out: IC50 L. amazonensis.
In the next data set the test system is peritoneal macrophages. Nature of the data set: Toxicity to peritoneal macrophages (Trypan Blue count). The class given is cell-based, BALB/C mouse. The procedure:
Peritoneal macrophages were prepared as follows. Non-inflammatory macrophages (10^6) were collected from each BALB/C mouse. The cells adhered at 37° C. after 2 h under 5% CO2 in a CO2 incubator. The plates were then rinsed two to three times with 0.5 mL of RPMI+buffer MOPS without fetal calf serum to eliminate non-adhering cells. The supernatant on the plates was replaced by fresh medium (RPMI+glutamine+FCS+antibiotics), 0.5 mL of medium per well. To determine the toxicity of the compounds to macrophages, dilutions of compounds were added on a part of the macrophages prepared above. […] The medium was then removed and 1 μL of sterile Trypan Blue was added. Cover glasses N° 1 were left where cells were plated and then the number of macrophages in a microscope was determined with a haemocytometer. All experiments were performed in triplicate.

The next data set relates to 3T3 cells. In words: Cell growth inhibition bioassay (sulforhodamine B). The class given is cell-based, mouse. The note with it: 48 h, SRB. The method, then:
(§1) The cytotoxicity of compounds was assayed as follows. […] Appropriate solvent controls were tested for comparison. The percent inhibition of cell growth relative to the control was evaluated colorimetrically using a sulforhodamine B dye by comparison to the control. The calorimetric procedure followed that published in Skehan et al., J. Nat. Cancer Inst., […], pp. 1107-1112 (1990) and Boyd & Paull, Drug Dev. Res., Vol. 34, pp. 91-109 (1995). […] The cell lines are: 3T3 cells are BALB/3T3 clone A31 embryonic mouse fibroblast cells; H460 cells are human large cell lung cancer cells; DU145 cells are human prostate carcinoma cells; MCF-7 cells are human breast adenocarcinoma cells; M-14 cells are human melanoma cells; HT-29 cells are human colon adenocarcinoma cells; PC3 cells are human prostate adenocarcinoma cells; K562 cells are human chronic myelogenous leukemia cells; and VERO cells are African Green Monkey kidney epithelial cells.

The subject of the next data set is HT-29 cells. In words: Cell growth inhibition bioassay (sulforhodamine B). The class given is cell-based, human. As to conditions: 48 h, SRB. The method, then: as §1
The subject of another data set is K562 cells. Nature of the data set: Cell growth inhibition bioassay (sulforhodamine B). The class given is cell-based, human. As to conditions: 48 h, SRB. The method, then: as §1
Another data set has as its system M-14 cells. In words: Cell growth inhibition bioassay (sulforhodamine B). The class given is cell-based, human. The note with it: 48 h, SRB. The method, then: as §1
The test system of another data set is MCF-7 cells. Nature of the data set: Cell growth inhibition bioassay (sulforhodamine B). The class given is cell-based, human. As to conditions: 48 h, SRB. The procedure: as §1
The subject of a further data set is H460 cells. Nature of the data set: Cell growth inhibition bioassay (sulforhodamine B). The class given is cell-based, human. As to conditions: 48 h, SRB. The method, then: as §1
The test system of a further data set is DU145 cells. Nature of the data set: Cell growth inhibition bioassay (sulforhodamine B). The class given is cell-based, human. The note with it: 48 h, SRB. The method, then:
as §1

In a further data set the test system is M. tuberculosis H37Rv. Nature of the data set: Conventional aerobic (MABA) culture assay, luminescence MIC. The class given is cell-based, Mycobacterium tuberculosis. As to conditions: aerobic, 7 days, H37Rv.
The next data set concerns VERO cells. In words: Cell growth inhibition bioassay (sulforhodamine B). The note with it: 48 h, SRB. The class given is cell-based, African Green Monkey. The procedure:
as §1

The subject of data set [3] is axenic amastigotes of L. amazonensis (strain MHOM/BR/76/LTB-012). As to conditions: read-out: L. amazonensis IC50; Table 8b.
The test system of a further data set is L. amazonensis. The note with it: intralesional, compounds 5 mg/kg/day; for Mean lesion size (mm) / Mean parasite quantification (per 10^6) in lesion per mg (±SD) / Mean lesion wt (mg) (±SD) / % Variation of lesion wt / % reduction of parasite burden in the lesion: Glucantime 33 mg Sb(v)/kg/day; for Mean lesion wt (mg) (±SD): BALB/c mice n=10; for % Variation of lesion wt / % reduction of parasite burden in the lesion: vs control.

Where [4] appears, read: Mus musculus, Peritoneal macrophage, 48 h, Table 7, read-out: IC50 Macrophage.

In brackets after ≈: the same amount, converted by molar mass. Read-outs that look alike come from different tables or passages of the source.

As to `C=CCOc1cc(OC)c(C(=O)/C=C/c2ccc(O)c(OC)c2)c(OCC=C)c1` [Compound I-18, (2E)-1-[2-Methoxy-4,6-bis(2-propenyloxy)phenyl]-3-(3-methoxy-4-hydroxyphenyl)-2-propen-1-one], in data set [1], the inhibition at 10 µg/mL was 27.9% and the half-maximal inhibitory concentration (IC50) is > 25 µM. Besides, the half-inhibitory concentration (IC50) in data set [2] was 107 µM.

For `C=CCOc1cc(OC)c(C(=O)/C=C/C=C/c2ccccc2)c(OCC=C)c1` [Compound I-21, (2E,4E)-1-[2-Methoxy-4,6-bis(2-propenyloxy)phenyl]-5-phenyl-2,4-pentadien-1-one], in data set [1], the inhibition at 10 µg/mL turned out to be 47.7% and the IC50 is > 25 µM. Also, in [2], the half-inhibitory concentration (IC50) was found to be 75.2 µM.

With `C=CCOc1cc(OC)c(C(=O)/C=C/c2ccc[nH]2)c(OCC=C)c1` [Compound I-22, (2E)-3-(1H-pyrrol-2-yl)-1-[2-methoxy-4,6-bis(2-propenyloxy)phenyl]-2-propen-1-one], in [1], the inhibition at 10 µg/mL is 1.25% and the IC50 was > 100 µM. For the same molecule, the 50% inhibitory concentration (IC50) in data set [2] was determined as 94.3 µM.

As to `COc1cc(O)cc(O)c1C(=O)/C=C/c1ccccc1` [Compound I-29, (2E)-1-(2,4-Dihydroxy-6-methoxyphenyl)-3-(phenyl)-2-propen-1-one], the values for the IC50 (in the data set with peritoneal macrophages (setting [4]); in [2]) were 27 µM and 15.9 µM, respectively.

For the molecule `COc1cc(O)cc(O)c1C(=O)/C=C/c1ccc(O)cc1` [Compound I-30, (2E)-1-(2,4-Dihydroxy-6-methoxyphenyl)-3-(4-hydroxyphenyl)-2-propen-1-one], the IC50 with peritoneal macrophages (setting [4]) stood at 21.7 µM; in data set [2], 15.7 µM.

Turning to `COc1cccc(/C=C/C(=O)c2c(O)cc(O)cc2OC)c1` [Compound I-31, (2E)-1-(2,4-Dihydroxy-6-methoxyphenyl)-3-(3-methoxyphenyl)-2-propen-1-one], the IC50 in the data set with peritoneal macrophages (setting [4]) came to 17.6 µM; in [2], 12 µM.

As for `COc1cc(O)cc(O)c1C(=O)/C=C/c1ccc(C(F)(F)F)cc1` [Compound I-32, (2E)-1-(2,4-Dihydroxy-6-methoxyphenyl)-3-[4-(trifluoromethyl)phenyl]-2-propen-1-one], the IC50 in the data set with peritoneal macrophages (setting [4]) was 17.1 µM; in data set [2], 8.6 µM.

With `COc1cc(O)cc(O)c1C(=O)/C=C/c1ccc(Cl)cc1` [Compound I-33, (2E)-3-(4-Chlorophenyl)-1-(2,4-dihydroxy-6-methoxyphenyl)-2-propen-1-one], the half-inhibitory concentration (IC50) is 19 µM in the data set with peritoneal macrophages (setting [4]) and 11.2 µM in [2].

For the molecule `COc1cc(O)cc(O)c1C(=O)/C=C/c1ccccc1F` [Compound I-34, (2E)-1-(2,4-Dihydroxy-6-methoxyphenyl)-3-(2-fluorophenyl)-2-propen-1-one], the IC50 with peritoneal macrophages (setting [4]) came to 16 µM; in data set [2], 11.8 µM.

`COc1cc(O)cc(O)c1C(=O)/C=C/c1ccccc1Br` [Compound I-35, (2E)-3-(2-Bromophenyl)-1-(2,4-dihydroxy-6-methoxyphenyl)-2-propen-1-one]: the concentration for half-maximal inhibition (IC50) in the data set on peritoneal macrophages (setting [4]) turned out to be 14.6 µM; in data set [2] it was 10.6 µM.

For the molecule `COc1cc(/C=C/C(=O)c2c(O)cc(O)cc2OC)ccc1O` [Compound I-37, (2E)-1-(2,4-Dihydroxy-6-methoxyphenyl)-3-(3-methoxy-4-hydroxyphenyl)-2-propen-1-one], the concentration for half-maximal inhibition (IC50) in [2] is 14.9 µM.

On to `COc1cc(/C=C/C(=O)c2c(O)cc(O)cc2OC)cc(OC)c1OC` [Compound I-38, (2E)-1-(2,4-Dihydroxy-6-methoxyphenyl)-3-(3,4,5-trimethoxydroxyphenyl)-2-propen-1-one], for which the 50% inhibitory concentration (IC50) in data set [2] is 9.7 µM.

As for `COc1cc(O)cc(O)c1C(=O)/C=C/C=C/c1ccccc1` [Compound I-39, (2E,4E)-1-(2,4-Dihydroxy-6-methoxyphenyl)-5-phenyl-2,4-pentadien-1-one], the half-inhibitory concentration (IC50) in data set [2] amounted to 52.6 µM.

Take `COc1cc(O)cc(O)c1C(=O)/C=C/c1ccc(F)cc1` [Compound I-40, (2E)-1-(2,4-Dihydroxy-6-methoxyphenyl)-3-(4-fluorophenyl)-2-propen-1-one]: the IC50 in the data set on peritoneal macrophages (setting [4]) was 28.8 µM; in [2], 11.8 µM.

With `COc1cc(O)cc(O)c1C(=O)/C=C/c1ccc(C)cc1` [Compound I-41, (2E)-1-(2,4-Dihydroxy-6-methoxyphenyl)-3-(4-methylphenyl)-2-propen-1-one], the IC50 with peritoneal macrophages (setting [4]) was found to be 16.5 µM; in data set [2] it was 7.4 µM.

With `O=[N+]([O-])c1ccccc1C=NNc1ncnc2sc3c(c12)CCCC3` [II-23], the “GI50 in indicated cell line: 3T3” value in the data set with 3T3 cells is >62.5 µg/mL. Besides, the “GI50 in indicated cell line: HT-29” value with HT-29 cells was 70.5 µg/mL (≈ 199 µM). Moreover, the “GI50 in indicated cell line: K562” value in the data set on K562 cells is 61.6 µg/mL (≈ 174 µM). In addition, the “GI50 in indicated cell line: M-14” value in the data set on M-14 cells came to 58.9 µg/mL (≈ 167 µM). Moreover, the “GI50 in indicated cell line: MCF-7” value in the data set on MCF-7 cells came out at 18.4 µg/mL (≈ 52.1 µM). Also, in the data set with H460 cells, the “GI50 in indicated cell line: H460” value was found to be 18.7 µg/mL (≈ 52.9 µM). For the same molecule, in the data set on DU145 cells, the “GI50 in indicated cell line: DU145” value turned out to be 36.4 µg/mL (≈ 103 µM). For the same molecule, the “MIC MABA” value against M. tuberculosis H37Rv is >100 µg/mL. In addition, in the data set with VERO cells, the “GI50 in indicated cell line: VERO” value was >62.5 µg/mL. In addition, the IC50 in [3] is 38.1 µM; in the data set with peritoneal macrophages it was > 100 µM. Further, the “T. cruzi IC50 Lab A” value in data set [1] (Lab A) worked out at 1.1 µg/mL.

As for `N#Cc1ccc(C=NNc2ncnc3sc4c(c23)CCCC4)cc1` [II-32], the “GI50 in indicated cell line: 3T3” value in the data set on 3T3 cells amounted to 50.1 µg/mL (≈ 150 µM). For the same molecule, the “GI50 in indicated cell line: HT-29” value in the data set on HT-29 cells is >62.5 µg/mL. Moreover, the “GI50 in indicated cell line: K562” value in the data set on K562 cells was >62.5 µg/mL. Moreover, the “GI50 in indicated cell line: M-14” value in the data set with M-14 cells was >62.5 µg/mL. Besides, in the data set on MCF-7 cells, the “GI50 in indicated cell line: MCF-7” value came to 33.9 µg/mL (≈ 102 µM). Besides, the “GI50 in indicated cell line: H460” value in the data set with H460 cells was >62.5 µg/mL. Besides, the “GI50 in indicated cell line: DU145” value with DU145 cells was >62.5 µg/mL. For the same molecule, the “MIC MABA” value with M. tuberculosis H37Rv is >100 µg/mL. Besides, the “GI50 in indicated cell line: VERO” value in the data set on VERO cells is >62.5 µg/mL. Moreover, the half-maximal inhibitory concentration (IC50) came to 10.8 µM in data set [3] and 53.9 µM in the data set on peritoneal macrophages.

Take “N-methylglucamine antimoniate [Glucantime, reference compound]”: in the data set with L. amazonensis (after 4 weeks treatment), the “Mean lesion size (mm)” value is listed as 2.1 mm, the “Mean parasite quantification (per 10^6) in lesion per mg (±SD)” value is 0 (0) amastigotes (×10^6)/mg, the “Mean lesion wt (mg) (±SD)” value is given as 5.6 (±0.4) mg and the “% Variation of lesion wt” value was determined as 91%. For the same molecule, the “% reduction of parasite burden in the lesion” value in the data set on L. amazonensis (after 4 weeks treatment) is listed as 100%. In the data set with L. amazonensis (after 7 weeks treatment), the “Mean lesion size (mm)” value turned out to be 2.2 mm, the “Mean parasite quantification (per 10^6) in lesion per mg (±SD)” value is 0 (0) amastigotes (×10^6)/mg, the “Mean lesion wt (mg) (±SD)” value is on record as 13.5 (±2.9) mg and the “% Variation of lesion wt” value turned out to be 85%. Also, the “% reduction of parasite burden in the lesion” value with L. amazonensis (after 7 weeks treatment) worked out at 100%. Further, the Lesion diameter with L. amazonensis (Glucantime 33 mg/kg/day) came out at 2.2 mm. Also, the “Reduction of parasite burden After 4 weeks” value in the data set with L. amazonensis (Glucantime 33 mg/kg/day, after 4 weeks) came to 100%. In addition, the “Reduction of parasite burden After 7 weeks” value in the data set on L. amazonensis (Glucantime 33 mg/kg/day, after 7 weeks) was 100%.

(Values after patent US9061984B2 (University of Louisville Research Foundation, Inc., priority 2008, dated 2015).)
